# Reference: PubChem BioAssay (NCI)
#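 GI50 is the concentration that inhibits growth by half. TGI marks complete inhibition of growth.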
# Experiments:
# Assay in all cases: growth of human tumour cells (NCI), 384-well format
# [1] = system: SNB-19 CNS
# [2] = system: HT29 colon
# [3] = system: MOLT-4 leukemia
# [4] = system: A549 NSCLC
# [5] = system: SW-620 colon
# [6] = system: MCF7 breast
# [7] = system: U251 glioblastoma
# [8] = system: HOP-92 NSCLC
# [9] = system: MDA-MB-435 melanoma
# [10] = system: K-562 leukemia
# [11] = system: HCT-15 colon
# [12] = system: MDA-MB-468 breast
# [13] = system: SN12C renal
# [14] = system: CCRF-CEM leukemia
# [15] = system: SK-OV-3 ovarian
# [16] = system: ACHN renal
# [17] = system: NCI-H522 lung
# [18] = system: BT-549 breast
# [19] = system: HOP-62 NSCLC
# [20] = system: NCI-H23 lung
# [21] = system: DU-145 prostate
# [22] = system: T-47D breast
# [23] = system: HL-60(TB) leukemia
# [24] = system: KM12 colon
# [25] = system: SNB-75 CNS
# [26] = system: RXF 393 renal
# [27] = system: SK-MEL-5 melanoma
# [28] = system: OVCAR-3 ovarian
# [29] = system: HS 578T breast
# [30] = system: RPMI-8226 leukemia
# [31] = system: 786-0 renal
# [32] = system: OVCAR-8 ovarian
# [33] = system: LOX IMVI melanoma
# [34] = system: TK-10 renal
# [35] = system: M14 melanoma
# [36] = system: CAKI-1 renal
# [37] = system: SF-539 CNS
# [38] = system: PC-3 prostate
# [39] = system: A498 renal
# [40] = system: SK-MEL-28 melanoma
# [41] = system: UACC-62 melanoma
# [42] = system: SF-268 CNS
# [43] = system: COLO 205 colon
# [44] = system: SR leukemia
# [45] = system: HCC-2998 colon
# [46] = system: NCI-H322M lung
# [47] = system: SF-295 CNS
# [48] = system: UO-31 renal
compound,measurement,setting,value
O=C(Cc1ccccc1)Nc1nnc(CCSCCc2nnc(NC(=O)Cc3ccccc3)s2)s1,GI50,[1],19.4 µM
same,TGI,[1],48 µM
same,GI50,[2],> 100 µM
same,TGI,[2],> 100 µM
same,GI50,[3],> 39.2 µM
same,TGI,[3],> 100 µM
same,GI50,[4],1.06 µM
same,TGI,[4],5.54 µM
same,GI50,[5],> 60.9 µM
same,TGI,[5],> 100 µM
same,GI50,[6],> 28.5 µM
same,TGI,[6],> 75.1 µM
same,GI50,[7],3.13 µM
same,TGI,[7],21.4 µM
same,GI50,[8],3.05 µM
same,TGI,[8],14.8 µM
same,GI50,[9],30 µM
same,TGI,[9],> 100 µM
same,GI50,[10],10.1 µM
same,TGI,[10],> 100 µM
same,GI50,[11],> 100 µM
same,TGI,[11],> 100 µM
same,GI50,[12],29.7 µM
same,TGI,[12],> 83.2 µM
same,GI50,[13],3.29 µM
same,TGI,[13],19.5 µM
same,GI50,[14],11.6 µM
same,TGI,[14],> 100 µM
same,GI50,[15],15.5 µM
same,TGI,[15],40.4 µM
same,GI50,[16],> 30 µM
same,TGI,[16],> 100 µM
same,GI50,[17],2.92 µM
same,TGI,[17],15.1 µM
same,GI50,[18],9.85 µM
same,TGI,[18],30.5 µM
same,GI50,[19],2.92 µM
same,TGI,[19],11.9 µM
same,GI50,[20],16.1 µM
same,TGI,[20],39.7 µM
same,GI50,[21],14 µM
same,TGI,[21],> 100 µM
same,GI50,[22],27.3 µM
same,TGI,[22],> 88.3 µM
same,GI50,[23],28.3 µM
same,TGI,[23],> 100 µM
same,GI50,[24],1.94 µM
same,TGI,[24],> 100 µM
same,GI50,[25],8.91 µM
same,TGI,[25],27.2 µM
same,GI50,[26],1.42 µM
same,TGI,[26],4.88 µM
same,GI50,[27],10.4 µM
same,TGI,[27],52.5 µM
same,GI50,[28],7.24 µM
same,TGI,[28],> 60.5 µM
same,GI50,[29],0.9 µM
same,TGI,[29],3.37 µM
same,GI50,[30],1.42 µM
same,GI50,[31],2.27 µM
same,TGI,[31],8.96 µM
same,GI50,[32],4.38 µM
same,TGI,[32],17.9 µM
same,GI50,[33],3.99 µM
same,TGI,[33],23.1 µM
same,GI50,[34],18 µM
same,TGI,[34],62.2 µM
same,GI50,[35],> 43.4 µM
same,TGI,[35],> 88.8 µM
same,GI50,[36],8.03 µM
same,TGI,[36],> 41 µM
same,GI50,[37],3.16 µM
same,TGI,[37],18.2 µM
same,GI50,[38],13.4 µM
same,TGI,[38],35 µM
same,GI50,[39],3.13 µM
same,TGI,[39],11.9 µM
same,GI50,[40],21.7 µM
same,TGI,[40],> 61.2 µM
same,GI50,[41],8.39 µM
same,TGI,[41],31.1 µM
same,GI50,[42],2.16 µM
same,TGI,[42],9.86 µM
same,GI50,[43],> 100 µM
same,TGI,[43],> 100 µM
same,GI50,[44],0.544 µM
same,TGI,[44],> 100 µM
same,GI50,[45],39.7 µM
same,TGI,[45],> 100 µM
same,GI50,[46],0.393 µM
same,TGI,[46],2.21 µM
same,GI50,[47],9.57 µM
same,TGI,[47],26.4 µM
same,GI50,[48],46 µM
same,TGI,[48],> 100 µM
